According to US6423744B1, “Method of diminishing the adverse effects of interleukin-2” (Biomedicines, Inc., priority 1998, dated 2002):

Tests used:
LTB4 chemotaxis [1] = test: Inhibition of LTB4 chemotaxis (in vitro); format: cell-based
IL-2-induced toxicity [2] = test: Rat model of IL-2-induced toxicity, PaO2 (Example 4); conditions: Biomed 101 (20 or 60 mg/kg total i.p.) with IL-2 12.5 MIU/kg
Procedure: (§1) Six groups of animals were studied (total N=59). […] The animals remained conscious throughout the experiment until an anesthetic was administered approximately 10 minutes before planned exsanguination. The anesthetic consisted of a mixture of ketamine (45 mg/ml), xylazine (2.5 mg/ml), and acepromazine (0.37 mg/ml) diluted with water and administered subcutaneously at a dose of 2.0 ml/kg.
(§2) IL-2 or IL-2 vehicle was administered by bolus injection via the tail vein. […] Two hours after the injection of IL-2 or IL-2 vehicle, animals were exsanguinated via the abdominal aorta and the arterial blood was collected for measurement of PaO2.
(§3) Group 1 (n=13) consisted of control animals that received injections of each vehicle, either i.v. or i.p. as appropriate. The other five groups received i.v. bolus injections of IL-2 via the tail vein. Groups 2 (n=8), 3 (n=5), and 4 (n=13) received IL-2 in doses of 1.5, 6.0, and 12.5 million IU/kg, respectively.
The study was conducted in two phases.
(§4) Whole arterial blood was collected into heparinized syringes. Immediately after collection, the blood sample was analyzed using a Lazar Research Laboratories flow-through dissolved-oxygen probe. The cell temperature was set to 37 degrees centigrade. A syringe pump was set to 0.5 ml/min to introduce the sample. The cell was zeroed using a solution of heparin and isotonic saline equilibrated with 100% nitrogen. The cell was then calibrated using a solution of heparin and isotonic saline equilibrated with 20% oxygen. After each PaO2 determination in whole blood was made, the cell was washed with heparin ad isotonic saline. A 20% O2 standard was introduced before each sample to ensure accurate and reliable measurements.
(§5) If the data appeared to be normally distributed, the comparison was to be made using Student's t-test.

[3] = test system: IL-2-induced reduction in oxygenation; conditions: rat
Procedure: Animals were weighed on the day of dosing and the appropriate doses of IL-2 and/or LA were calculated. The animals remained conscious throughout the experiment until an anesthetic was administered approximately 10 minutes before exsanguination. The anesthetic consisted of a mixture of ketamine (45 mg/ml) xylazine (2.5 mg/ml), and acepromazine (0.37 mg/ml) diluted with water and administered subcutaneously at a dose of 2.0 ml/kg.
Group 1 (n=14) consisted of control animals that received both i.v. and i.p. injections of vehicle. The other five groups received i.v. injections of IL-2 via the tail vein. Groups 2 (n=8), 3 (n=4), and 4 (n=10) received IL-2 in doses of 1.5, 6.0, and 12.5 million IU(MIU)/kg, respectively. In addition to 12.5 million IU/kg of IL-2, Groups 5 (n=8) and 6 (n=13) received i.p. injections of the LA. The LA was administered in two equal, divided doses; the first dose of LA was given 20 minutes before administration of IL-2 and the second dose was given 50 minutes after administration of IL-2. Group 5 was administered 2×10 mg/kg of the LA. Group 6 was administered 2×30 mg/kg of the LA.
Two hours after the IL-2 injection, the animals were exsanguinated via the abdominal aorta and the arterial blood was collected for measurement of PaO2.
Whole arterial blood was collected into heparinized blood arterial gas syringes. Immediately after collection, the blood sample was analyzed using PaO2 electrode model DO-166FT. Sample blood was pre-oxygenated and used as a standard before and after each test sample.
Data are shown as mean±SEM. Data were analyzed using the Tukey-Kramer test (JMP® statistical software from SAS, Inc.) Significance was defined as a p-value less than 0.05.

[4] = test system: B16/BL6 murine melanoma tumor cells; test: Murine model of B16 melanoma lung metastases (Example 5); format: in vivo
Procedure: The B16/BL6 murine melanoma tumor cells for injection were obtained from in vitro culture. Mice were inoculated with 3×10^5 cells intravenously on Day 0.
Tumor cells were injected on Day 0. […] An additional group of 15 untreated control mice was used for timing the termination of the study. At Day 10, three untreated control mice were to be euthanized each day until tumor burden was determined to be optimal for counting metastatic foci, at which time the remaining rumored and five non-rumored mice were to be euthanized and lungs removed for determination of body weights, lung weights and numbers of metastatic foci.
Anti-tumor activity was assessed by counts of metastatic foci in the lungs. Comparison among the three treatment groups (Groups 1, 2 and 3) was performed using one-way ANOVA (or Kruskal-Wallis one-way analysis of variance on ranks for data with non-normal distribution) with the three between-group comparisons performed using adjustment for multiple comparisons.

LTB4 synthesis = test: Inhibition of LTB4 synthesis; format: biochemical
[5] = test system: LTB4-induced neutrophil granulation; test: Inhibition of LTB4-induced neutrophil granulation; format: cell-based
renal cell carcinoma [6] = test: Clinical trial of LA plus IL-2 in patients with renal cell carcinoma (Example 6); format: in vivo, human
Procedure: A preferred LA compound (as defined in Example 3) from drug substance lot # BA901 was supplied as 25 mg capsules Batch # 99G111 by BioMedicines, Inc. Each hard gelatin capsule contained 25 mg LA plus excipients including lactose hydrous NF; hydroxypropylmethylcellulose 2910, 6 cps USP; sodium lauryl sulfate NF; purified water, USP; and sodium chloride.
Patients received IL-2 600,000 IU/kg by intravenous bolus three times daily during 5 days for a planned total of 14 doses. LA was administered orally 1 hour prior to each schedule dose of IL-2 as well as 8 hours after the final scheduled dose. If dose of IL-2 was withheld because of IL-2 induced toxicity, dosing with LA continued. Doses of LA ranged from 25 mg three times daily (TID) to 75 mg TID. Plasma levels of LA were obtained at each dose level.
The principal activity endpoint was the relationship between the total number of doses of IL-2 that could be administered and well tolerated by patients and the plasma levels of LA. A second endpoint was the response rate in patients of the tumor to the combination therapy with the leukotriene B4 receptor antagonist and IL-2 as judged by complete responses (total disappearance of measurable tumor) or partial responses (a ≧50% decrease in measurable tumor volume).
Data were analyzed by examining the significance of the correlation between number of doses of IL-2 and LA plasma level (Spearman's rho).

LTB4 chemotaxis [7] = test: Inhibition of LTB4 chemotaxis in guinea pigs; format: in vivo; conditions: Cavia porcellus, po; i.g.
12 (R)-HETE = test: Inhibition of 12 (R)-HETE in guinea pigs; format: in vivo; conditions: Cavia porcellus, po; i.g.
[8] = test system: LTA4 conversion into LTB4; test: Inhibition of LTA4 conversion into LTB4; format: biochemical
[9] = format: in vivo; conditions: intraperitoneal, bid for 4 days, tumored mice treated with IL-2; preliminary study
[10] = Biomed 101 plasma levels in rats (HPLC); format: in vivo, Sprague Dawley rats; conditions: rat
Procedure: In animals dosed with Biomed 101, plasma levels of Biomed 101 were assayed with a validated, high-pressure liquid chromatographic method.

[11] = test system: calcium ionophore dermal inflammation; test: Inhibition of calcium ionophore dermal inflammation in the guinea pig ear; conditions: in vivo
[12] = test system: acetic acid colonic inflammation; test: Inhibition of acetic acid colonic inflammation; format: in vivo; conditions: Rattus norvegicus, po; i.g.; read-out: Inhibition of acetic acid colonic inflammation in rats and guinea pig, ED50
[13] = test system: human neutrophil adhesion to LTB4-stimulated umbilical vein endothelial cells; test: Inhibition of human neutrophil adhesion to LTB4-stimulated umbilical vein endothelial cells; format: cell-based
renal cell carcinoma [14] = conditions: IL-2 treatment alone; cited from earlier work
IL-2-induced toxicity [15] = conditions: rat, in vivo
Procedure: as §1, §2, §3
The study was conducted in two phases.
as §4, §5

## CCCc1c(OCCCOc2ccc(C(C)=O)c(OC)c2CCC)ccc2c1OC(C(=O)O)CC2 (racemic) [Biomed 101, (±)7-[3-(4-acetyl-3-methoxy-2-propylphenoxy)propoxy]-3,4-dihydro-8-propyl-2H-1-benzopyran-2-carboxylic acid]
LTB4 chemotaxis [1]
  Inhibition of LTB4 chemotaxis, range: 0.3 to 3.0 µM
IL-2-induced toxicity [2]
  Median PaO2 versus IL-2 alone: significantly higher
  Median PaO2 versus control animals: not significantly different
[3]; LA 2×10 or 2×30 mg/kg i.p. with IL-2 12.5 MIU/kg i.v., p>0.5 vs control, p<0.001 vs IL-2 alone
  effect of LA on the reduction in oxygenation induced by IL-2: mitigated
[4]; Day 10, IL-2 1 mg/kg iv, Biomed 101 25 mg/kg ip with IL-2, q6hx2, qdx4, vehicle control 98
  Number of lung mets Mean (± SEM): 56
[4]; mice, Biomed 101 25 mg/kg ip with IL-2
  effect of coadministration on the anti-tumor activity of IL-2: fully preserves and may enhance
LTB4 synthesis
  IC50: 2.1 µM
[5]
  Inhibition of LTB4-induced neutrophil granulation, range: 1 to 3 µM
Renal cell carcinoma [6]
  number of doses of IL-2 withheld because of IL-2 toxicity as plasma level of LA increased: decreased
  total number of doses of IL-2 well tolerated as LA dose and plasma level rose: rose
Renal cell carcinoma [6]; 25 mg TID to 75 mg TID orally
  plasma level of LA with total daily dose: increased
LTB4 chemotaxis [7]
  ED50: 0.6 mg/kg
12 (R)-HETE
  ED50: 20 mg/kg
[8]
  IC50: 20 µM
[9]
  highest tolerated dose: 25 mg/kg bid
[10]; 20 mg/kg Biomed 101 i.p. (2×10 mg/kg)
  mean plasma level (± standard error of the mean) of Biomed 101: 2.0 (±0.26) μg/ml
[10]; 60 mg/kg Biomed 101 i.p. (2×30 mg/kg)
  mean plasma level (± standard error of the mean) of Biomed 101: 6.4 (±0.89) μg/ml
[11]
  Inhibition of calcium ionophore dermal inflammation in the guinea pig ear, ED50: 0.7 mg/ear
[12]
  ED50: 20 mg/kg
[13]
  Inhibition of human neutrophil adhesion to LTB4-stimulated umbilical vein endothelial cells, range: 0.3 to 1.0 µM

## des-alanyl-1, serine-125 human interleukin-2 [IL-2]
[3]; in vivo, iv
  arterial oxygen level (PaO2), mean±SEM: 77.5±2.5 mm Hg
  effect of progressively higher doses on arterial oxygen levels: progressively reduced
[4]; Day 10, vehicle control 174
  Median Lung Weight: 177 mg
[4]; Kruskal-Wallis
  lung weights compared with vehicle control: did not decrease
[4]; mice, Group 2, IL-2 1 mg/kg iv, Day 4
  deaths: one death
[4]; treated group compared with control (untreated) group
  Changes in Metastases (mean) (N): −32 N
Renal cell carcinoma [14]
  objective response rate historically noted: 8-10%
IL-2-induced toxicity [15]
  Change in Oxygen (mean) (mm Hg): −15 mm Hg
  decrease of mean PaO2 for each increase of 1 MIU/kg in IL-2 administered: approximately 1.8 mm Hg
  effect on PaO2: significant fall
